Experiments:
Assay in all cases: Test C greenhouse herbicide test, pre- and postemergence
Format in all cases: in vivo
corn (Zea mays) = test system: corn (Zea mays)
Text: (§1) Seeds of plant species selected from blackgrass (Alopecurus myosuroides), ryegrass, Italian (Italian ryegrass, Lolium multiflorum), wheat (winter wheat, Triticum aestivum), galium (catchweed bedstraw, Galium aparine), corn (Zea mays), large crabgrass, large (large crabgrass, Digitaria sanguinalis), foxtail, giant (giant foxtail, Setaria faberii), johnsongrass (Sorghum halepense), lambsquarters (Chenopodium album), morningglory (Ipomoea coccinea), nutsedge, yellow (yellow nutsedge, Cyperus esculentus), pigweed (Amaranthus retroflexus), ragweed (common ragweed, Ambrosia elatior), soybean (Glycine max), barnyardgrass (Echinochloa crus-galli), oilseed rape (Brassica napus), waterhemp (common waterhemp, Amaranthus rudis), and velvetleaf (Abutilon theophrasti) were planted into a blend of loam soil and sand and treated preemergence with test chemicals formulated in a non-phytotoxic solvent mixture which included a surfactant.
(§2) At the same time, plants selected from these crop and weed species and also chickweed (common chickweed, Stellaria media), kochia (Kochia scoparia), and oat, wild (wild oat, Avena fatua), were planted in pots containing Redi-Earth® planting medium (Scotts Company, 14111 Scottslawn Road, Marysville, Ohio 43041) comprising spaghnum peat moss, vermiculite, wetting agent and starter nutrients and treated with postemergence applications of test chemicals formulated in the same manner. Plants ranged in height from 2 to 18 cm (1- to 4-leaf stage) for postemergence treatments. Treated plants and controls were maintained in a greenhouse for 13 to 15 d, after which time all species were compared to controls and visually evaluated. Plant response ratings, summarized in Table C, are based on a scale of 0 to 100 where 0 is no effect and 100 is complete control. A dash (-) response means no test result.

[1] = test system: barnyardgrass (Echinochloa crus-galli)
Text: as §1, §2

[2] = test system: velvetleaf (Abutilon theophrasti)
Text: as §1, §2

[3] = test system: crabgrass, large (large crabgrass, Digitaria sanguinalis)
Text: as §1, §2

[4] = test system: morningglory (Ipomoea coccinea)
Text: as §1, §2

[5] = test system: foxtail, giant (giant foxtail, Setaria faberii)
Text: as §1, §2

[6] = test system: ryegrass, Italian (Italian ryegrass, Lolium multiflorum)
Text: as §1, §2

[7] = test system: waterhemp (common waterhemp, Amaranthus rudis)
Text: as §1, §2

[8] = test system: galium (catchweed bedstraw, Galium aparine)
Text: as §1, §2

[9] = test system: blackgrass (Alopecurus myosuroides)
Text: as §1, §2

[10] = test system: oilseed rape (Brassica napus)
Text: as §1, §2

[11] = test system: lambsquarters (Chenopodium album)
Text: as §1, §2

[12] = test system: ragweed (common ragweed, Ambrosia elatior)
Text: as §1, §2

[13] = test system: nutsedge, yellow (yellow nutsedge, Cyperus esculentus)
Text: as §1, §2

soybean (Glycine max) = test system: soybean (Glycine max)
Text: as §1, §2

[14] = Postemergence, 31 g ai/ha, 0 to 100 scale (0 no effect, 100 complete control)
[15] = Postemergence, 125 g ai/ha, scale 0 to 100, 0 is no effect, 100 is complete control
[16] = Postemergence, 250 g ai/ha, scale 0 to 100, 0 no effect, 100 complete control, 13 to 15 d
[17] = Preemergence, 31 g ai/ha, scale 0 to 100, 0 is no effect, 100 is complete control
[18] = Preemergence, 62 g ai/ha, scale 0 to 100, 0 is no effect, 100 is complete control
[19] = Preemergence, 125 g ai/ha, scale 0 to 100, 0 is no effect, 100 is complete control
[20] = Preemergence, 250 g ai/ha, scale 0 to 100, 0 no effect, 100 complete control
[21] = postemergence, 62 g ai/ha, scale 0 to 100, 0 no effect, 100 complete control

Compound: Cn1nc(Br)c(O)c(-c2cccc3ccccc23)c1=O [Compound 20]
- Corn plant response rating (corn (Zea mays); [14]): 5
- Plant response rating, Corn (corn (Zea mays); [15]): 5
- Plant response rating, Corn (corn (Zea mays); [16]): 10
- Plant response rating, Corn (corn (Zea mays); [17]): 0
- Plant response rating, Corn (corn (Zea mays); [18]): 0
- Plant response rating, Corn (corn (Zea mays); [19]): 5
- Corn plant response rating (corn (Zea mays); [20]): 35
- Corn plant response rating (corn (Zea mays); [21]): 5
- Barnyardgrass plant response rating [1, 14]: 5
- Plant response rating, Barnyardgrass [1, 15]: 30
- Plant response rating, Barnyardgrass [1, 16]: 45
- Plant response rating, Barnyardgrass [1, 17]: 5
- Plant response rating, Barnyardgrass [1, 18]: 30
- Plant response rating, Barnyardgrass [1, 19]: 60
- Barnyardgrass plant response rating [1, 20]: 85
- Barnyardgrass plant response rating [1, 21]: 10
- Velvetleaf plant response rating [2, 14]: 25
- Plant response rating, Velvetleaf [2, 15]: 85
- Plant response rating, Velvetleaf [2, 16]: 100
- Plant response rating, Velvetleaf [2, 18]: 90
- Plant response rating, Velvetleaf [2, 19]: 100
- Velvetleaf plant response rating [2, 20]: 100
- Velvetleaf plant response rating [2, 21]: 25
- Crabgrass, Large plant response rating [3, 14]: 5
- Plant response rating, Crabgrass, Large [3, 15]: 10
- Plant response rating, Crabgrass, Large [3, 16]: 30
- Plant response rating, Crabgrass, Large [3, 17]: 10
- Plant response rating, Crabgrass, Large [3, 18]: 15
- Plant response rating, Crabgrass, Large [3, 19]: 15
- Crabgrass, Large plant response rating [3, 20]: 60
- Crabgrass, Large plant response rating [3, 21]: 10
- Morningglory plant response rating [4, 14]: 100
- Plant response rating, Morningglory [4, 15]: 100
- Plant response rating, Morningglory [4, 16]: 100
- Plant response rating, Morningglory [4, 17]: 85
- Plant response rating, Morningglory [4, 18]: 98
- Plant response rating, Morningglory [4, 19]: 98
- Morningglory plant response rating [4, 20]: 100
- Morningglory plant response rating [4, 21]: 100
- Foxtail, Giant plant response rating [5, 14]: 0
- Plant response rating, Foxtail, Giant [5, 15]: 45
- Plant response rating, Foxtail, Giant [5, 16]: 80
- Plant response rating, Foxtail, Giant [5, 17]: 5
- Plant response rating, Foxtail, Giant [5, 18]: 30
- Plant response rating, Foxtail, Giant [5, 19]: 65
- Foxtail, Giant plant response rating [5, 20]: 85
- Foxtail, Giant plant response rating [5, 21]: 25
- Ryegrass, Italian plant response rating [6, 14]: 55
- Plant response rating, Ryegrass, Italian [6, 15]: 80
- Plant response rating, Ryegrass, Italian [6, 16]: 90
- Plant response rating, Ryegrass, Italian [6, 17]: 75
- Plant response rating, Ryegrass, Italian [6, 18]: 95
- Plant response rating, Ryegrass, Italian [6, 19]: 95
- Ryegrass, Italian plant response rating [6, 20]: 95
- Ryegrass, Italian plant response rating [6, 21]: 60
- Waterhemp plant response rating [7, 14]: 70
- Plant response rating, Waterhemp [7, 15]: 60
- Plant response rating, Waterhemp [7, 16]: 90
- Plant response rating, Waterhemp [7, 18]: 100
- Plant response rating, Waterhemp [7, 19]: 100
- Waterhemp plant response rating [7, 20]: 100
- Waterhemp plant response rating [7, 21]: 40
- Galium plant response rating [8, 14]: 98
- Plant response rating, Galium [8, 15]: 100
- Plant response rating, Galium [8, 16]: 100
- Plant response rating, Galium [8, 17]: 90
- Plant response rating, Galium [8, 18]: 100
- Plant response rating, Galium [8, 19]: 95
- Galium plant response rating [8, 20]: 95
- Galium plant response rating [8, 21]: 100
- Blackgrass plant response rating [9, 14]: 5
- Plant response rating, Blackgrass [9, 15]: 10
- Plant response rating, Blackgrass [9, 16]: 45
- Plant response rating, Blackgrass [9, 17]: 0
- Plant response rating, Blackgrass [9, 18]: 5
- Plant response rating, Blackgrass [9, 19]: 40
- Blackgrass plant response rating [9, 20]: 80
- Blackgrass plant response rating [9, 21]: 10
- Oilseed Rape plant response rating [10, 14]: 0
- Plant response rating, Oilseed Rape [10, 15]: 5
- Plant response rating, Oilseed Rape [10, 16]: 25
- Plant response rating, Oilseed Rape [10, 17]: 0
- Plant response rating, Oilseed Rape [10, 18]: 0
- Plant response rating, Oilseed Rape [10, 19]: 0
- Oilseed Rape plant response rating [10, 20]: 20
- Oilseed Rape plant response rating [10, 21]: 0
- Lambsquarters plant response rating [11, 14]: 80
- Plant response rating, Lambsquarters [11, 15]: 100
- Plant response rating, Lambsquarters [11, 16]: 100
- Plant response rating, Lambsquarters [11, 17]: 80
- Plant response rating, Lambsquarters [11, 18]: 85
- Plant response rating, Lambsquarters [11, 19]: 85
- Lambsquarters plant response rating [11, 20]: 90
- Lambsquarters plant response rating [11, 21]: 85
- Ragweed plant response rating [12, 14]: 80
- Plant response rating, Ragweed [12, 15]: 95
- Plant response rating, Ragweed [12, 16]: 100
- Plant response rating, Ragweed [12, 17]: 35
- Plant response rating, Ragweed [12, 18]: 45
- Plant response rating, Ragweed [12, 19]: 70
- Ragweed plant response rating [12, 20]: 75
- Ragweed plant response rating [12, 21]: 85
- Nutsedge, Yellow plant response rating [13, 14]: 45
- Plant response rating, Nutsedge, Yellow [13, 15]: 85
- Plant response rating, Nutsedge, Yellow [13, 16]: 95
- Plant response rating, Nutsedge, Yellow [13, 17]: 80
- Plant response rating, Nutsedge, Yellow [13, 18]: 85
- Plant response rating, Nutsedge, Yellow [13, 19]: 95
- Nutsedge, Yellow plant response rating [13, 20]: 95
- Nutsedge, Yellow plant response rating [13, 21]: 65
- Soybean plant response rating (soybean (Glycine max); [14]): 0
- Plant response rating, Soybean (soybean (Glycine max); [15]): 35
- Plant response rating, Soybean (soybean (Glycine max); [16]): 0
- Plant response rating, Soybean (soybean (Glycine max); [18]): 20
- Plant response rating, Soybean (soybean (Glycine max); [19]): 30
- Soybean plant response rating (soybean (Glycine max); [20]): 30
- Soybean plant response rating (soybean (Glycine max); [21]): 0

Source: patent US10597388B2, “Pyridazinone herbicides” (FMC CORPORATION, priority 2014, dated 2020)
